± gives the expanded uncertainty stated by the source.
How the values were obtained:
[1] = 101 kPa, Liquid
[2] = xn = mol fraction of the nth substance listed; details: 101 kPa, Liquid

With Cc1ccccc1O [2-methylphenol] the mass density ([1]; 303.15 K) was 1036.94 ± 0.4 kg/m3.
Cc1ccccc1O [2-methylphenol] + CCCCCCCC gave a mass density ([2]; 303.15 K, x2 = 0.0779) of 998.31 ± 0.32 kg/m3, a mass density ([2]; 303.15 K, x2 = 0.1634) of 958.43 ± 0.36 kg/m3 and a mass density ([2]; 303.15 K, x2 = 0.2569) of 918.23 ± 0.4 kg/m3. For the same molecule, the mass density ([2]; 303.15 K, x2 = 0.299) was 901.26 ± 0.41 kg/m3, the mass density ([2]; 303.15 K, x2 = 0.36) was 877.71 ± 0.44 kg/m3 and the mass density ([2]; 303.15 K, x2 = 0.4277) was 853.18 ± 0.46 kg/m3. It also gave a mass density ([2]; 303.15 K, x2 = 0.4797) of 835.08 ± 0.48 kg/m3, a mass density ([2]; 303.15 K, x2 = 0.5787) of 803.61 ± 0.5 kg/m3 and a mass density ([2]; 303.15 K, x2 = 0.6607) of 779.19 ± 0.53 kg/m3. The mass density ([2]; 303.15 K, x2 = 0.7664) was 750.13 ± 0.55 kg/m3, the mass density ([2]; 303.15 K, x2 = 0.8032) was 740.51 ± 0.56 kg/m3 and the mass density ([2]; 303.15 K, x2 = 0.9143) was 713.35 ± 0.59 kg/m3.
Cc1ccccc1O [2-methylphenol] + Cc1ccccc1 gave a mass density ([2]; 303.15 K, x2 = 0.0529) of 1027.55 ± 0.37 kg/m3, a mass density ([2]; 303.15 K, x2 = 0.0849) of 1021.91 ± 0.35 kg/m3 and a mass density ([2]; 303.15 K, x2 = 0.1409) of 1011.86 ± 0.31 kg/m3. For the same molecule, the mass density ([2]; 303.15 K, x2 = 0.203) was 1000.75 ± 0.28 kg/m3, the mass density ([2]; 303.15 K, x2 = 0.2749) was 987.89 ± 0.27 kg/m3 and the mass density ([2]; 303.15 K, x2 = 0.341) was 975.95 ± 0.28 kg/m3. For the same molecule, the mass density ([2]; 303.15 K, x2 = 0.4343) was 959.13 ± 0.28 kg/m3, the mass density ([2]; 303.15 K, x2 = 0.5187) was 943.88 ± 0.29 kg/m3 and the mass density ([2]; 303.15 K, x2 = 0.6073) was 927.88 ± 0.29 kg/m3. It also gave a mass density ([2]; 303.15 K, x2 = 0.6873) of 913.43 ± 0.3 kg/m3, a mass density ([2]; 303.15 K, x2 = 0.7547) of 901.26 ± 0.31 kg/m3 and a mass density ([2]; 303.15 K, x2 = 0.7852) of 895.73 ± 0.31 kg/m3. The mass density ([2]; 303.15 K, x2 = 0.8381) was 886.24 ± 0.32 kg/m3, the mass density ([2]; 303.15 K, x2 = 0.8481) was 884.43 ± 0.32 kg/m3 and the mass density ([2]; 303.15 K, x2 = 0.9068) was 873.9 ± 0.33 kg/m3. For the same molecule, the mass density ([2]; 303.15 K, x2 = 0.9346) was 869.01 ± 0.34 kg/m3 and the mass density ([2]; 303.15 K, x2 = 0.9737) was 862.08 ± 0.34 kg/m3.
For Cc1ccccc1O [2-methylphenol] + O, the mass density ([2]; 303.15 K, x1 = 0.5953) was 1033.22 ± 0.27 kg/m3, the mass density ([2]; 303.15 K, x1 = 0.675) was 1034.33 ± 0.29 kg/m3 and the mass density ([2]; 303.15 K, x1 = 0.8012) was 1035.55 ± 0.33 kg/m3. For the same molecule, the mass density ([2]; 303.15 K, x1 = 0.8184) was 1035.9 ± 0.34 kg/m3, the mass density ([2]; 303.15 K, x1 = 0.8443) was 1036.16 ± 0.35 kg/m3 and the mass density ([2]; 303.15 K, x1 = 0.8903) was 1036.47 ± 0.36 kg/m3. The mass density ([2]; 303.15 K, x1 = 0.8909) was 1036.26 ± 0.36 kg/m3 and the mass density ([2]; 303.15 K, x1 = 0.9409) was 1036.95 ± 0.38 kg/m3.
In the case of Cc1cccc(O)c1 [3-methylphenol], the mass density ([1]; 303.15 K) is reported as 1025.95 ± 0.19 kg/m3.
Work on Cc1cccc(O)c1 [3-methylphenol] + CCCCCCCC yielded a mass density ([2]; 303.15 K, x2 = 0.1197) of 970.59 ± 0.2 kg/m3, a mass density ([2]; 303.15 K, x2 = 0.2473) of 916.86 ± 0.28 kg/m3 and a mass density ([2]; 303.15 K, x2 = 0.3868) of 864.19 ± 0.36 kg/m3. The mass density ([2]; 303.15 K, x2 = 0.5012) was 825.55 ± 0.43 kg/m3, the mass density ([2]; 303.15 K, x2 = 0.6387) was 783.91 ± 0.48 kg/m3 and the mass density ([2]; 303.15 K, x2 = 0.7818) was 745.29 ± 0.54 kg/m3. It also gave a mass density ([2]; 303.15 K, x2 = 0.8773) of 721.91 ± 0.57 kg/m3.
Molecule Cc1cccc(O)c1 [3-methylphenol] + Cc1ccccc1 has a mass density ([2]; 303.15 K, x2 = 0.0563) of 1016.89 ± 0.17 kg/m3, a mass density ([2]; 303.15 K, x2 = 0.0853) of 1012.17 ± 0.17 kg/m3 and a mass density ([2]; 303.15 K, x2 = 0.1619) of 999.57 ± 0.15 kg/m3. It also gave a mass density ([2]; 303.15 K, x2 = 0.2521) of 984.6 ± 0.17 kg/m3, a mass density ([2]; 303.15 K, x2 = 0.3053) of 975.73 ± 0.19 kg/m3 and a mass density ([2]; 303.15 K, x2 = 0.3799) of 963.22 ± 0.2 kg/m3. It also gave a mass density ([2]; 303.15 K, x2 = 0.4494) of 951.45 ± 0.22 kg/m3, a mass density ([2]; 303.15 K, x2 = 0.5205) of 939.49 ± 0.24 kg/m3 and a mass density ([2]; 303.15 K, x2 = 0.7198) of 905.42 ± 0.28 kg/m3. It also gave a mass density ([2]; 303.15 K, x2 = 0.8129) of 889.49 ± 0.3 kg/m3, a mass density ([2]; 303.15 K, x2 = 0.8723) of 879.32 ± 0.32 kg/m3 and a mass density ([2]; 303.15 K, x2 = 0.9534) of 865.4 ± 0.34 kg/m3.
Work on Cc1cccc(O)c1 [3-methylphenol] + O yielded a mass density ([2]; 303.15 K, x1 = 0.547) of 1020.94 ± 0.17 kg/m3, a mass density ([2]; 303.15 K, x1 = 0.5754) of 1021.37 ± 0.18 kg/m3 and a mass density ([2]; 303.15 K, x1 = 0.6312) of 1022.09 ± 0.18 kg/m3. The mass density ([2]; 303.15 K, x1 = 0.6558) was 1022.4 ± 0.18 kg/m3, the mass density ([2]; 303.15 K, x1 = 0.704) was 1022.95 ± 0.18 kg/m3 and the mass density ([2]; 303.15 K, x1 = 0.7933) was 1023.97 ± 0.18 kg/m3. For the same molecule, the mass density ([2]; 303.15 K, x1 = 0.7997) was 1024.04 ± 0.18 kg/m3, the mass density ([2]; 303.15 K, x1 = 0.8215) was 1024.36 ± 0.18 kg/m3 and the mass density ([2]; 303.15 K, x1 = 0.845) was 1024.52 ± 0.18 kg/m3. For the same molecule, the mass density ([2]; 303.15 K, x1 = 0.8635) was 1024.3 ± 0.18 kg/m3, the mass density ([2]; 303.15 K, x1 = 0.8759) was 1024.67 ± 0.18 kg/m3 and the mass density ([2]; 303.15 K, x1 = 0.8839) was 1024.94 ± 0.18 kg/m3. For the same molecule, the mass density ([2]; 303.15 K, x1 = 0.9231) was 1025.3 ± 0.18 kg/m3, the mass density ([2]; 303.15 K, x1 = 0.9426) was 1025.49 ± 0.18 kg/m3 and the mass density ([2]; 303.15 K, x1 = 0.9703) was 1025.78 ± 0.18 kg/m3.
Cc1ccc(O)cc1 [4-methylphenol] showed a mass density ([1]; 303.15 K) of 1025.9 ± 0.19 kg/m3.
Molecule Cc1ccc(O)cc1 [4-methylphenol] + Cc1ccccc1 has a mass density ([2]; 303.15 K, x2 = 0.0588) of 1016.31 ± 0.17 kg/m3, a mass density ([2]; 303.15 K, x2 = 0.1156) of 1007.12 ± 0.16 kg/m3 and a mass density ([2]; 303.15 K, x2 = 0.1715) of 997.89 ± 0.15 kg/m3. For the same molecule, the mass density ([2]; 303.15 K, x2 = 0.2813) was 979.91 ± 0.18 kg/m3, the mass density ([2]; 303.15 K, x2 = 0.3882) was 962.16 ± 0.21 kg/m3 and the mass density ([2]; 303.15 K, x2 = 0.4914) was 944.32 ± 0.23 kg/m3. The mass density ([2]; 303.15 K, x2 = 0.5885) was 929.7 ± 0.25 kg/m3, the mass density ([2]; 303.15 K, x2 = 0.6906) was 912.26 ± 0.27 kg/m3 and the mass density ([2]; 303.15 K, x2 = 0.775) was 897.37 ± 0.29 kg/m3. The mass density ([2]; 303.15 K, x2 = 0.8337) was 887.52 ± 0.31 kg/m3, the mass density ([2]; 303.15 K, x2 = 0.886) was 877.87 ± 0.32 kg/m3 and the mass density ([2]; 303.15 K, x2 = 0.962) was 864.24 ± 0.34 kg/m3.
Work on Cc1ccc(O)cc1 [4-methylphenol] + O yielded a mass density ([2]; 303.15 K, x1 = 0.548) of 1020.42 ± 0.17 kg/m3, a mass density ([2]; 303.15 K, x1 = 0.6243) of 1021.77 ± 0.18 kg/m3 and a mass density ([2]; 303.15 K, x1 = 0.6758) of 1022.35 ± 0.18 kg/m3. For the same molecule, the mass density ([2]; 303.15 K, x1 = 0.74) was 1023.33 ± 0.18 kg/m3, the mass density ([2]; 303.15 K, x1 = 0.7976) was 1023.92 ± 0.18 kg/m3 and the mass density ([2]; 303.15 K, x1 = 0.8897) was 1025.1 ± 0.18 kg/m3.
In the case of CCCCCCCC [octane], the mass density ([1]; 303.15 K) is reported as 694.52 ± 0.62 kg/m3.
Molecule Oc1ccccc1 [phenol] has a mass density ([1]; 313.15 K) of 1058.3 ± 0.25 kg/m3.
Work on Oc1ccccc1 [phenol] + Cc1ccccc1 yielded a mass density ([2]; 313.15 K, x2 = 0.0999) of 1033.8 ± 0.21 kg/m3, a mass density ([2]; 313.15 K, x2 = 0.1576) of 1021.66 ± 0.19 kg/m3 and a mass density ([2]; 313.15 K, x2 = 0.2581) of 998.46 ± 0.17 kg/m3. For the same molecule, the mass density ([2]; 313.15 K, x2 = 0.3492) was 978.14 ± 0.19 kg/m3, the mass density ([2]; 313.15 K, x2 = 0.4363) was 959.22 ± 0.22 kg/m3 and the mass density ([2]; 313.15 K, x2 = 0.5438) was 936.46 ± 0.25 kg/m3. For the same molecule, the mass density ([2]; 313.15 K, x2 = 0.6351) was 917.72 ± 0.27 kg/m3, the mass density ([2]; 313.15 K, x2 = 0.7288) was 898.99 ± 0.29 kg/m3 and the mass density ([2]; 313.15 K, x2 = 0.8334) was 878.75 ± 0.32 kg/m3. The mass density ([2]; 313.15 K, x2 = 0.9015) was 865.97 ± 0.34 kg/m3.
Work on Oc1ccccc1 [phenol] + O yielded a mass density ([2]; 313.15 K, x1 = 0.3794) of 1038.84 ± 0.2 kg/m3, a mass density ([2]; 313.15 K, x1 = 0.4653) of 1042.74 ± 0.21 kg/m3 and a mass density ([2]; 313.15 K, x1 = 0.6176) of 1048.12 ± 0.22 kg/m3. The mass density ([2]; 313.15 K, x1 = 0.7052) was 1050.69 ± 0.23 kg/m3, the mass density ([2]; 313.15 K, x1 = 0.8247) was 1054.06 ± 0.23 kg/m3 and the mass density ([2]; 313.15 K, x1 = 0.9099) was 1056.28 ± 0.24 kg/m3.
For Cc1ccccc1 [toluene], the mass density ([1]; 303.15 K) was 857.47 ± 0.35 kg/m3 and the mass density ([1]; 313.15 K) was 848.07 ± 0.36 kg/m3.
